Tests used:
Format in all cases: in vivo
[1] = system: barnyardgrass (Echinochloa crus-galli); experiment: Test A pre-/postemergence: barnyardgrass; details: for Barnyardgrass plant response rating: Postemergence; for Plant response rating, Barnyardgrass: Preemergence
In short: (§1)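 Pre: directed soil spray after planting in loam + sand. Post: same formulation (non-phytotoxic solvent + surfactant) on 1–2-leaf plants, 2–10 cm. Greenhouse ~10 d; visual injury 0–100 vs untreated.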

[2] = system: crabgrass, large (large crabgrass, Digitaria sanguinalis); experiment: Test A pre-/postemergence: crabgrass, large; details: for Crabgrass, Large plant response rating: Postemergence; for Plant response rating, Crabgrass, Large: Preemergence
From the text: (§2) Seeds of barnyardgrass (Echinochloa crus-galli), crabgrass, large (large crabgrass, Digitaria sanguinalis), foxtail, giant (giant foxtail, Setaria faberii), morningglory (Ipomoea spp.), pigweed (Amaranthus retroflexus), velvetleaf (Abutilon theophrasti), wheat (Triticum aestivum), and corn (Zea mays) were planted into a blend of loam soil and sand and treated preemergence with a directed soil spray using test chemicals formulated in a non-phytotoxic solvent mixture which included a surfactant. At the same time these species were also treated with postemergence applications of test chemicals formulated in the same manner.
(§3) Plants ranged in height from two to ten cm and were in the one- to two-leaf stage for the postemergence treatment. Treated plants and untreated controls were maintained in a greenhouse for approximately ten days, after which time all treated plants were compared to untreated controls and visually evaluated for injury. Plant response ratings, summarized in Table A, are based on a 0 to 100 scale where 0 is no effect and 100 is complete control. A dash (-) response means no test result.

[3] = system: foxtail, giant (giant foxtail, Setaria faberii); experiment: Test A pre-/postemergence: foxtail, giant; details: for Foxtail, Giant plant response rating: Postemergence; for Plant response rating, Foxtail, Giant: Preemergence
In short: as §1

[4] = system: morningglory (Ipomoea spp.); experiment: Test A pre-/postemergence: morningglory; details: for Morningglory plant response rating: Postemergence; for Plant response rating, Morningglory: Preemergence
In short: as §1

[5] = system: pigweed (Amaranthus retroflexus); experiment: Test A pre-/postemergence: pigweed; details: for Pigweed plant response rating: Postemergence; for Plant response rating, Pigweed: Preemergence
In short: as §1

[6] = system: velvetleaf (Abutilon theophrasti); experiment: Test A pre-/postemergence: velvetleaf; details: for Velvetleaf plant response rating: Postemergence; for Plant response rating, Velvetleaf: Preemergence
In short: as §1

[7] = system: wheat (Triticum aestivum); experiment: Test A pre-/postemergence: wheat; details: for Wheat plant response rating: Postemergence; for Plant response rating, Wheat: Preemergence
From the text: as §2, §3

corn (Zea mays) = experiment: Test A pre-/postemergence: corn; details: for Corn plant response rating: Postemergence; for Plant response rating, Corn: Preemergence
From the text: as §2, §3

[8] = 125 g ai/ha, 0 to 100 scale, 0 is no effect, 100 is complete control
[9] = 500 g ai/ha, visual rating on 0 to 100 scale (0 no effect, 100 complete control), approximately ten days
[10] = 125 g ai/ha, 0 to 100 scale where 0 is no effect and 100 is complete control
[11] = 500 g ai/ha, 0 to 100 scale (0 no effect, 100 complete control)
[12] = 125 g ai/ha, 0 to 100 scale (0 no effect, 100 complete control)
[13] = 500 g ai/ha, 0 to 100 scale, 0 is no effect, 100 is complete control

Structure (SMILES): Cc1nn(-c2ccc(F)cc2)nc1Cn1cnc(C(F)(F)F)c1 [Compound 112]
- Barnyardgrass plant response rating [1, 8]: 0
- Barnyardgrass plant response rating [1, 9]: 30
- Plant response rating, Barnyardgrass [1, 10]: 0
- Plant response rating, Barnyardgrass [1, 11]: 40
- Crabgrass, Large plant response rating [2, 8]: 50
- Crabgrass, Large plant response rating [2, 9]: 90
- Plant response rating, Crabgrass, Large [2, 10]: 80
- Plant response rating, Crabgrass, Large [2, 11]: 100
- Foxtail, Giant plant response rating [3, 8]: 20
- Foxtail, Giant plant response rating [3, 9]: 80
- Plant response rating, Foxtail, Giant [3, 10]: 60
- Plant response rating, Foxtail, Giant [3, 11]: 90
- Morningglory plant response rating [4, 8]: 60
- Morningglory plant response rating [4, 9]: 100
- Plant response rating, Morningglory [4, 10]: 0
- Plant response rating, Morningglory [4, 11]: 20
- Pigweed plant response rating [5, 8]: 90
- Pigweed plant response rating [5, 9]: 100
- Plant response rating, Pigweed [5, 10]: 90
- Plant response rating, Pigweed [5, 11]: 100
- Velvetleaf plant response rating [6, 8]: 50
- Velvetleaf plant response rating [6, 9]: 60
- Plant response rating, Velvetleaf [6, 10]: 0
- Plant response rating, Velvetleaf [6, 11]: 20
- Wheat plant response rating [7, 8]: 10
- Wheat plant response rating [7, 9]: 30
- Plant response rating, Wheat [7, 10]: 0
- Plant response rating, Wheat [7, 11]: 0
- Corn plant response rating (corn (Zea mays); [8]): 20
- Corn plant response rating (corn (Zea mays); [9]): 20
- Plant response rating, Corn (corn (Zea mays); [10]): 0
- Plant response rating, Corn (corn (Zea mays); [11]): 0

Structure (SMILES): Cc1nn(-c2ccc(F)cc2)nc1Oc1cc(C(F)(F)F)ccn1 [Compound 128]
- Barnyardgrass plant response rating [1, 8]: 0
- Barnyardgrass plant response rating [1, 9]: 20
- Plant response rating, Barnyardgrass [1, 10]: 0
- Plant response rating, Barnyardgrass [1, 11]: 0
- Crabgrass, Large plant response rating [2, 8]: 10
- Crabgrass, Large plant response rating [2, 9]: 20
- Plant response rating, Crabgrass, Large [2, 10]: 0
- Plant response rating, Crabgrass, Large [2, 11]: 20
- Foxtail, Giant plant response rating [3, 8]: 0
- Foxtail, Giant plant response rating [3, 9]: 10
- Plant response rating, Foxtail, Giant [3, 10]: 0
- Plant response rating, Foxtail, Giant [3, 11]: 20
- Morningglory plant response rating [4, 8]: 30
- Morningglory plant response rating [4, 9]: 30
- Plant response rating, Morningglory [4, 10]: 0
- Plant response rating, Morningglory [4, 11]: 20
- Pigweed plant response rating [5, 8]: 30
- Pigweed plant response rating [5, 9]: 40
- Plant response rating, Pigweed [5, 10]: 0
- Plant response rating, Pigweed [5, 11]: 0
- Velvetleaf plant response rating [6, 8]: 20
- Velvetleaf plant response rating [6, 9]: 30
- Plant response rating, Velvetleaf [6, 10]: 0
- Plant response rating, Velvetleaf [6, 11]: 0
- Wheat plant response rating [7, 8]: 0
- Wheat plant response rating [7, 9]: 0
- Plant response rating, Wheat [7, 10]: 0
- Plant response rating, Wheat [7, 11]: 0
- Corn plant response rating (corn (Zea mays); [8]): 10
- Corn plant response rating (corn (Zea mays); [9]): 10
- Plant response rating, Corn (corn (Zea mays); [10]): 0
- Plant response rating, Corn (corn (Zea mays); [11]): 0

Structure (SMILES): Cc1nn(-c2ccc(C(F)(F)F)cc2)nc1Oc1ccc(Cl)c(C(F)(F)F)c1 [Compound 103]
- Barnyardgrass plant response rating [1, 8]: 0
- Barnyardgrass plant response rating [1, 9]: 0
- Plant response rating, Barnyardgrass [1, 12]: 0
- Plant response rating, Barnyardgrass [1, 13]: 0
- Crabgrass, Large plant response rating [2, 8]: 0
- Crabgrass, Large plant response rating [2, 9]: 30
- Plant response rating, Crabgrass, Large [2, 12]: 0
- Plant response rating, Crabgrass, Large [2, 13]: 10
- Foxtail, Giant plant response rating [3, 8]: 0
- Foxtail, Giant plant response rating [3, 9]: 20
- Plant response rating, Foxtail, Giant [3, 10]: 0
- Plant response rating, Foxtail, Giant [3, 13]: 0
- Morningglory plant response rating [4, 8]: 0
- Morningglory plant response rating [4, 9]: 0
- Plant response rating, Morningglory [4, 10]: 0
- Plant response rating, Morningglory [4, 13]: 0
- Pigweed plant response rating [5, 8]: 50
- Pigweed plant response rating [5, 9]: 70
- Plant response rating, Pigweed [5, 10]: 10
- Plant response rating, Pigweed [5, 13]: 30
- Velvetleaf plant response rating [6, 8]: 0
- Velvetleaf plant response rating [6, 9]: 10
- Plant response rating, Velvetleaf [6, 10]: 0
- Plant response rating, Velvetleaf [6, 13]: 0
- Wheat plant response rating [7, 8]: 0
- Wheat plant response rating [7, 9]: 0
- Plant response rating, Wheat [7, 10]: 0
- Plant response rating, Wheat [7, 13]: 0
- Corn plant response rating (corn (Zea mays); [8]): 0
- Corn plant response rating (corn (Zea mays); [9]): 0
- Plant response rating, Corn (corn (Zea mays); [12]): 0
- Plant response rating, Corn (corn (Zea mays); [13]): 0

Structure (SMILES): Cc1nn(-c2ccc(F)cc2)nc1Oc1cccc(OC(F)(F)F)c1 [Compound 100]
- Barnyardgrass plant response rating [1, 8]: 10
- Barnyardgrass plant response rating [1, 9]: 30
- Plant response rating, Barnyardgrass [1, 12]: 0
- Plant response rating, Barnyardgrass [1, 13]: 20
- Crabgrass, Large plant response rating [2, 8]: 60
- Crabgrass, Large plant response rating [2, 9]: 80
- Plant response rating, Crabgrass, Large [2, 12]: 10
- Plant response rating, Crabgrass, Large [2, 13]: 90
- Foxtail, Giant plant response rating [3, 8]: 50
- Foxtail, Giant plant response rating [3, 9]: 70
- Plant response rating, Foxtail, Giant [3, 10]: 20
- Plant response rating, Foxtail, Giant [3, 13]: 70
- Morningglory plant response rating [4, 8]: 90
- Morningglory plant response rating [4, 9]: 90
- Plant response rating, Morningglory [4, 10]: 0
- Plant response rating, Morningglory [4, 13]: 0
- Pigweed plant response rating [5, 8]: 80
- Pigweed plant response rating [5, 9]: 90
- Plant response rating, Pigweed [5, 10]: 10
- Plant response rating, Pigweed [5, 13]: 90
- Velvetleaf plant response rating [6, 8]: 30
- Velvetleaf plant response rating [6, 9]: 70
- Plant response rating, Velvetleaf [6, 10]: 0
- Plant response rating, Velvetleaf [6, 13]: 0
- Wheat plant response rating [7, 8]: 0
- Wheat plant response rating [7, 9]: 20
- Plant response rating, Wheat [7, 10]: 0
- Plant response rating, Wheat [7, 13]: 0
- Corn plant response rating (corn (Zea mays); [8]): 10
- Corn plant response rating (corn (Zea mays); [9]): 20
- Plant response rating, Corn (corn (Zea mays); [12]): 0
- Plant response rating, Corn (corn (Zea mays); [13]): 0
